In patent publication US7919104B2, “Functional epitopes of Streptococcus pneumoniae PsaA antigen and uses thereof” (priority 2005, dated 2011):

Experiments:
[1] = system: Detroit 562 cells; test: Homologous competitive inhibition of adherence of rPsaA- or peptide-coated fluospheres to Detroit 562 cells; type: cell-based, human
Experimental: (§1) Carboxylate-modified fluorospheres (Molecular Probes™, […]) coated with either recombinant PsaA (rPsaA) or PsaA synthetic peptide (P4) were evaluated for their adherence to Detroit 562 NP cells. Four different batches of PsaA beads were generated by varying the concentration of the protein solution used to coat the beads (0.9 mg/ml, 0.53 mg/ml, 5.3 μg/ml and 0.53 μg/ml). P4 and Glycine control beads were generated by using a peptide solution (0.9 mg/ml). Protein concentrations were confirmed by the Bradford test (Sigma). PsaA and peptide beads were compared at similar inocula (1640±210 beads per well) in adherence and adherence competition assays (measured as mean fluorescent units (FU±SE)).
(§2) Homologous competitive inhibitions with 0.5 to 10 μg per well of rPsaA protein or 5 to 20 μg per well of each peptide were performed to determine the specificity of the adherence for rPsaA-coated fluospheres or for each of the three peptide-coated fluospheres. Heterologous competitive inhibitions with each peptide (10 μg per well) were performed to determine which peptide blocked the adherence of whole PsaA-coated fluospheres to the Detroit 562 cells. Absorption of PsaA-specific antibodies was performed by incubation (2 hours at ambient room temperature with rotation, 100 rpm) of 500 μl (1:8 dilution) of the serum 7051 with nitrocellulose strips (2.5×0.5 cm), previously impregnated with rPsaA protein (1.8 mg/ml) and allowed to dry at 37° C. for 1 hour. Strips were replaced every 2 hours for a total of 3 changes. All antibody absorptions were performed in PBS (10 mM, pH 7.2) supplemented with 1% (weight/volume) BSA as a non-specific blocker. Immunoglobulin G (IgG) concentrations (μg/ml) were measured as previously described (Tharpe, Romero-Steiner) after each absorption step to monitor the decline of anti-PsaA antibodies.

[2] = system: pneumococci; conditions: antibodies to the peptides; cited from earlier work
[3] = system: Detroit 562 cells; test: Competitive inhibition of adherence of rPsaA-coated fluospheres to Detroit 562 cells; type: cell-based, human; conditions: for inhibition of rPsaA-fluosphere adherence, heterologous competition: peptide 10 μg/well
Experimental: as §1, §2

[4] = system: Detroit 562 cells; test: Adherence of rPsaA- or peptide-coated fluospheres (beads) to Detroit 562 cells; type: cell-based, human; conditions: 3,100±500 fluospheres per well; 2 hour incubation
Experimental: as §1
Recombinant PsaA protein or synthetic peptides were covalently bound to carboxylate-modified FluoSpheres (Molecular Probes, Eugene, Oreg.) (505/515 nm range, yellow, 1 μm in diameter). […] The 2% fluosphere stock was vortexed for 2 minutes at full speed. A 250-μl aliquot was sonicated for 5 minutes to break clumps. The sonicated fluospheres were washed 3 times by centrifugation at 10,000 rpm for 10 minutes in 250 μl MES buffer, pH 6.0 (Molecular Probes). The negative charge in the carboxylate-modified fluospheres was activated by adding 50 μl of EDAC solution (100 mg/ml, Molecular Probes) to the washed fluospheres resuspended in 200 μl MES. The fluospheres were incubated for 30 minutes RT with gentle rotation. A 250-μl volume of rPsaA (1 mg/ml) or peptide (2 mg/ml) resuspended in MES buffer was added to each fluosphere pellet. Suboptimal concentrations of rPsaA (900, 530, 5.3 and 0.53 μg/ml) were also used to generate partially coated fluospheres. Peptides were dissolved as 1 mg in 50 μl of 10% acetic acid followed by addition of 450 μl of MES buffer, pH 6.0. The 500-μl fluosphere suspension was incubated in the dark over night at room temperature with horizontal rotation (150 rpm). The remaining reactive sites were blocked by addition of a 50-μl volume of 1 M solution of glycine, followed by a-30-minute incubation at room temperature with horizontal rotation. The fluosphere suspension was then washed with 500 μl PBS, 50 mM, pH 7.2-7.4 three times by centrifugation at 10,000 rpm for 10 minutes. The first supernatant of the first wash was saved for protein determinations using the microtiter microdilution method of Bradford (Bio-Rad Laboratories, Calif.). The labeled fluosphere pellet was resuspended in 500 μl of PBS, 50 mM, pH 7.2-7.4. Labeled fluospheres were stored in the dark in 100-μl aliquots at 4° C. for up to 4 months. The peptides were stored in powder form at 4° C. under Dryerite desiccant. The resuspended peptides were stored at 4° C. for 6 weeks and for long term storage at −70° C. Fluospheres were counted by limiting dilution using a fluorometer (FLX-600, BioTek) with 485/520 nm excitation/emission wavelength and comparison to a calibration curve previously generated against hemacytometer counts.
Confluent monolayers of Detroit 562 cells grown in 96-well tissue culture plates for 6 days were washed once with 130 μl/well of PBS buffer+0.5% BSA (Sigma cat #A2153, Fraction V purified by alcohol precipitation). The entire outer perimeter of the microtiter plate was not used for adherence assays due to edge effect and lack of confluent growth in these wells. An 80-μl volume per well of PBS buffer+1% BSA and 20 μl per well of diluted fluosphere suspension (to yield ˜3100±500 fluospheres in a 20-μl volume) were added to the washed monolayers. The diluted fluosphere suspension was sonicated for 3 minutes prior to addition to the center of the wells. […] The sides of the plates were then tapped gently to mix. […] Following incubation, plates were washed 5 times with 130 μL/well of PBS+0.5% BSA. The liquid was removed after each wash with a multi-channel aspirator (Costar) and moderate vacuum. The plate was allowed to dry before reading in the fluorometer (485/520 nm). […]

[5] = homologous competitor 5.0 μg/well
[6] = homologous competitor 10 μg/well
[7] = homologous competitor 20 μg/well

Row | Substance | percent reduction in adherence of homologous coated fluospheres [1, 5] | percent reduction in adherence of homologous coated fluospheres [1, 6] | percent reduction in adherence of homologous coated fluospheres [1, 7] | colonization in mice immunized with the peptides [2] | inhibition of rPsaA-fluosphere adherence, heterologous competition [3] | enhancement of the binding of rPsaA fluospheres ([3]; unsaturated fluospheres (530 μg/ml of rPsaA), data not shown) | mean adherence of coated fluospheres (mean FU±SE) [4]
1 | LVRRFVHRRPHVE-SQ (LVRRFVHRRPHVESQ) [P3, synthetic peptide identified by phage display, reference compound] | −7.3% | 5.2% | 44.2% | reduce colonization | 75.2% | < 2.5 fold | 9,780±228 FU
2 | TVSRVPWTAWAFHGY [P1, synthetic peptide identified by phage display, reference compound] | 50.2% | 60.9% | 34.1% | reduce colonization | 88.1% | – | 52,684±4,354 FU
